pKd: −log10 of the molar value.
Tests used:
[1] = Flash photolysis kinetics of carboxylic acid formation (H+ release, cresol red); format: physicochemical; settings: pH 8.0, 20° C.; for τ, time constant of phenylacetate formation and H+ release after flash photolysis, free: zero [Ca2+]
Text: When a diazoketone is photolyzed in aqueous solution the major ultimate product is a carboxylic acid. […] Product formation is thus accompanied by proton release generated (Compound 3c, Scheme I). Product formation is thus accompanied by proton release which is readily monitored spectroscopically if a suitable acid-base indicator is used. Cresol red (pKa 8.2) is chosen to monitor proton release following flash photolysis of the diazo compounds in aqueous solutions adjusted to pH 8. […] The absorbance of cresol red at 572 nm decreases with decreasing pH. As the carboxylic acid product, 3c, is generated, the solution acidifies and the transmittance of the sample is expected to rise. […] The chemical structure of the photo-labile chromophore in diazo-3 is essentially identical to that in diazo-2 (FIG. 6, Scheme IV). Correspondingly, flash photolysis of diazo-3 under identical conditions yield experimental traces which were qualitatively the same as those obtained for diazo-2. In Table I is presented the characteristic time constants for carboxylic acid formation following flash photolysis of diazo-2 and diazo-3. Flash photolysis of Ca^2+ -bound diazo-2 produced the carboxylic acid with a characteristic time of 134 μs. The time slowed to 433 μs when Ca^2+ -free diazo-2 was photolyzed.
Diazo-2 was dissolved at 70 μM concentration in 100 mM KCl, 40 μM H4. BAPTA, and enough cresol red to yield OD572 =0.1 after the solution has been adjusted to pH 8. Transmitted light intensity at 572 nm was monitored using an HG-Xe.arc lamp, a monochromator, a photo multiplier and a Biomation transient recorder. Each small division of the ordinate corresponds to 0.002 absorbance unit. The small upward spike at time zero is an optical artifact from the xenon flash lamp. The solid trace is from the sample containing diazo-2. For comparison, the dotted trace is from a photochemically inert sample containing cresol red in 100 mM KCl at pH about 8.
Kinetics of the conversion of diazo-2 and diazo-3 to the carboxylic acid products and the kinetics of Ca^2+ binding by photolyzed diazo-2 were measured by flash photolysis and pH monitoring. The experiments were done in a Dialog apparatus (Garching, FRG) normally used for temperature jumps. The xenon flash lamp was a Model 6100SP7 (Photochemical Research Associates, London, Ontario, Canada) modified to give a light pulse with a full width at half maximum of 85 μs. The output of the xenon lamp was passed through a UG-2 filter to yield broad-band UV radiation in the 330-390 range. Since neither the flash lamp nor the kinetic spectrometer was optimized for light energy, the response amplitudes achieved in the experiments are far from those attainable during a biological experiment. […]

[2] = Mg2+ affinity in Mg/EGTA buffers; format: binding; settings: 0.1-0.15M ionic strength, pH 7.0-7.4, 20-23° C.
Method: (§1) Ca^2+ -binding constants for chelators before and after photolysis were determined by monitoring UV spectra during titration of EGTA or HEEDTA buffers to varying free Ca^2+ levels.
Free [Mg^2+ ] was likewise controlled by Mg/EGTA buffers, assuming an apparent dissociation constant for the Mg.EGTA complex (including its monoprotonated form) of 6 mM at pH 7.60 in 0.1M ionic strength; see R. Y. Tsien, et al. (1986) and A. E. Martell, et al. (1974).

[3] = Ca2+ affinity by UV spectra during titration of EGTA or HEEDTA buffers; format: binding
Method: The titration was done at 22° C. with 10 mL of 100 mM KCl, 10 mM K-MOPS, 10 mM K2 H.HEEDTA, and 14 […] diazo-2 as starting materials, adjusting the pH to 7.24, recording the spectrum, and then discarding 1.0 mL of this solution and replacing with 1.0 mL of 100 mM KCl, 10 mM K.MOPS, 10 mM KCa.HEEDTA, 14 μM diazo-2, readjusting the pH to 7.24, and recording the spectra, which was then in 9 mM K2H.HEEDTA. Subsequent iterations to reach n mM KCa.HEEDTA, (10-n) mM HEEDTA, n=2-10, were done by discarding 10.0/(11-n) mL and replacing with equal volumes of the 10mM KCa.HEEDTA, 14 μM diazo-2 stock. After n=10 had been reached to give free Ca^2+ between 10^-5 and 10^-4 M, addition of 1 mM CaCl2 had no further effect on the spectrum. For clarity only six spectra are including in the figure, n=0, 2, 4, 6, 8, and 10. Each spectrum is labeled with the calculated free [Ca^2+ ] imposed by the HEEDTA buffer, assuming a log effective stability constant of 5.55 at pH 7.24.
The phenylacetate was produced by irradiating a 30 μM solution of diazo-2 in 100 mM KCl, 10 mM Tris.HCl, 10 mM K2 H.HEEDTA, pH 8.40, with Spectroline lamp at 365 nm to completion. The titration was then performed as in A but the pH was maintained at 8.40, at which the calculated log effective stability is constant for HEEDTA was 6.60.
as §1
Either the ratio of, for example, [Ca.EGTA] to free [EGTA] was adjusted at a constant pH, or the pH was varied while [Ca.EGTA]=[EGTA]. These two approaches gave equivalent answers for pH>7 whenever directly tested, because of the pH insensitivity of BAPTA-like ligands (see FIG. 1 legend for more details). The apparent dissociation constants of Ca.EGTA and Ca.HEEDTA were calculated as described by R. Y. Tsien (1980); see also R. Y. Tsien, et al. (1986), S. R. Adams, et al. (1980), Grynkiewicz, et al., (1985), and Jackson, et al. (1987).

[4] = after photolysis, read-out: Kd (Mg2+), after photolysis

| Compound | τ, time constant of phenylacetate formation and H+ release after flash photolysis, +Ca2+ ([1]; saturating [Ca2+], additional fast alkalinization component present) [μs] | τ, time constant of phenylacetate formation and H+ release after flash photolysis, free [1] [μs] | pKd [2, 4] | pKd ([2]; before photolysis, read-out: Kd (Mg2+), before photolysis) | pKd ([3]; after photolysis, 0.1-0.15M ionic strength, 20-23° C., read-out: Kd (Ca2+), after photolysis) | pKd ([3]; before photolysis, 0.1-0.15M ionic strength, pH 7.0-7.4, 20-23° C., read-out: Kd (Ca2+), before photolysis) | τ, time constant of phenylacetate formation and H+ release after flash photolysis, free ([1]; listed as Diazo-3) [μs] | pKd ([3]; negligible affinity, pre- and post-photolysis, read-out: Kd (Ca2+)) |
| --- | --- | --- | --- | --- | --- | --- | --- | --- |
| Cc1ccc(N(CC(=O)O)CC(=O)O)c(OCCOc2cc(C(=O)C=[N+]=[N-])ccc2N(CC(=O)O)CC(=O)O)c1 [diazo-2, 1-(2-bis(carboxymethyl)amino-5-methyl) phenoxy-2-(2-bis(carboxymethyl)amino-5-(diazoacetyl)phenoxy) ethane] | 134 | 433 | 2.47 | 2.26 | 7.14 | 5.66 |  |  |
| COc1cc(C(=O)C=[N+]=[N-])ccc1N(CC(=O)O)CC(=O)O [diazo-3, 2-methoxy-4-(diazoacetyl)aniline-N, N-diacetic acid] |  | 239 | ~1.70 |  |  |  | 238 | < 3.00 |
